{"source": "patent US20240199728A1", "about": "“METHODS OF TREATING OBESITY, DIABETES, AND LIVER DYSFUNCTION” (REGENERON PHARMACEUTICALS, INC., priority 2022, published 2024)", "assay_type_in_all_cases": "in vivo", "key": {"[1]": {"tested_on": "diet-induced obesity (DIO) mouse model", "assay": "Final tissue/organ weights at end of study (day 28/29), DIO mice", "settings": "control group = 0.00 (FIG. 2B: % change vs. control), in %", "from_the_text": "DIO mice that have been fed a high fat diet for at least 20 weeks were distributed into 4 different groups balanced by body fat content as determined by MRI and blood glucose. On day 0, all mice were implanted with osmotic pumps (Alzet, Cat #2004), in which the stainless steel flow moderators were replaced with PEEK tubing (DURECT Corporation, Cat #0002496) to allow for MRI measurements during the experiment. Pumps for groups 1 and 2 contained PBS, while pumps used for groups 3 and 4 contained Semaglutide (0.833 mg/mL for 7 ug/day infusion). […]\nBody composition using MRI and fed blood glucose using a glucometer from tail bleeds were measured weekly in the morning. […] For the OGTT, mice were fasted for 4 hours, and baseline glucose was measured. Subsequently, 2 g/kg glucose was administered to the mice by oral gavage, and glucose was measured again after 30, 60, 90, and 120 minutes. On day 26, 6 hour fasted blood glucose was measured, and mice were bled for insulin assessment as described above. […] One lobe of the liver was fresh frozen to allow for triglyceride extraction and quantification using standard protocols. […] H&E, as well as smooth muscle actin (SMA), staining was performed, and slides were subjected to quantification using Halo software. […]"}, "[2]": {"tested_on": "diet-induced obesity (DIO) mouse model", "assay": "Body weight and body composition (MRI) over time in diet-induced obesity (DIO) mouse model", "parameters": "Body weight changes over time, Mean / Lean mass changes over time, Mean / Fat mass changes over time, Mean: unit not given here", "settings": "DIO mice; for Fat mass changes over time, Mean / Lean mass changes over time, Mean: MRI", "from_the_text": "(§1) DIO mice that have been fed a high fat diet for at least 20 weeks were distributed into 4 different groups balanced by body fat content as determined by MRI and blood glucose. On day 0, all mice were implanted with osmotic pumps (Alzet, Cat #2004), in which the stainless steel flow moderators were replaced with PEEK tubing (DURECT Corporation, Cat #0002496) to allow for MRI measurements during the experiment. Pumps for groups 1 and 2 contained PBS, while pumps used for groups 3 and 4 contained Semaglutide (0.833 mg/mL for […] infusion). The next day (day 1), mice were injected with their respective antibodies: group 1 and group 3: Isotype control (at 20 mg/kg); group 2 and group 4: anti-GDF8 antibody (REGN1033) & anti-Activin A antibody (REGN2477) (at 10 mg/kg each). The antibody injections were repeated on days 4 and 7 and once weekly after that.\n(§2) Body composition using MRI and fed blood glucose using a glucometer from tail bleeds were measured weekly in the morning. Mice were also bled for insulin measurements on a weekly basis. An oral glucose tolerance test (OGTT) was performed on day 23. For the OGTT, mice were fasted for 4 hours, and baseline glucose was measured. Subsequently, 2 g/kg glucose was administered to the mice by oral gavage, and glucose was measured again after 30, 60, 90, and 120 minutes. On day 26, 6 hour fasted blood glucose was measured, and mice were bled for insulin assessment as described above. At the end of the study (day 28/29), mice were sacrificed, and tissue (skeletal muscle, adipose, pancreas, heart, spleen, liver) was collected for weight and further analysis. Mouse plasma was used to measure circulating levels of ALT, AST, non-esterified fatty acids (NEFAs), triglycerides (trigs), and cholesterol (chol) on the Advia Chemistry Analyzer from Siemens. One lobe of the liver was fresh frozen to allow for triglyceride extraction and quantification using standard protocols. Another lobe of the liver and the pancreas were fixed in 10% formalin, embedded in paraffin, and sectioned for liver histology. H&E, as well as smooth muscle actin (SMA), staining was performed, and slides were subjected to quantification using Halo software. Paraffin sections of the pancreas were stained for insulin and glucagon to determine beta cell and alpha cell mass, respectively, using Halo software."}, "[3]": {"tested_on": "diet-induced obesity (DIO) mouse model", "assay": "Plasma ALT, AST, NEFA, triglycerides, cholesterol (Advia Chemistry Analyzer), DIO mice", "settings": "end of study, first value of group (mean)", "from_the_text": "as §1\nas §2, with “Another lobe of the liver and the pancreas were fixed in 10% formalin, embedded in paraffin, and sectioned for liver histology.” left out, “Paraffin sections of the pancreas were stained for insulin and glucagon to determine beta cell and alpha cell mass, respectively, using Halo software.” left out"}, "[4]": {"tested_on": "diet-induced obesity (DIO) mouse model", "assay": "Liver triglyceride extraction and liver histology (H&E, SMA staining), DIO mice", "settings": "end of study", "from_the_text": "as §1, §2"}, "[5]": {"tested_on": "diet-induced obesity (DIO) mouse model", "assay": "Fed blood glucose, insulin and glucagon, DIO mice", "from_the_text": "as §1, §2"}, "[6]": {"tested_on": "diet-induced obesity (DIO) mouse model", "assay": "Oral glucose tolerance test (OGTT) and fasted blood glucose, DIO mice", "from_the_text": "as §1\nas §2, with “Subsequently, 2 g/kg glucose was administered to the mice by oral gavage, and glucose was measured again after 30, 60, 90, and 120 minutes.” left out"}, "[7]": {"tested_on": "obese adult male cyno non-human primate (NHP) with NASH", "assay": "Obese NHP study of body weight, liver and metabolic effects of adding myostatin/activin A blockade onto GLP-1R agonism", "settings": "week 12", "procedure": "An obese NHP study of the body weight, liver and metabolic effects of adding on myostatin/activin A blockade onto GLP-1R agonism was carried out. FIG. 10 sets forth the study and timeline for obese adult male cyno non-human primate (NHP) with NASH, stratified based on body weight and % body fat, n=10 per arm.\nThe treatment groups were: • vehicle; • Semaglutide; • Anti-Myostatin+anti-Activin A; • Semaglutide+anti-Myostatin; and • Semaglutide+anti-Myostatin+anti-Activin A. REGN1033 is an anti-Myostatin antibody, and REGN2477 is an anti-Activin A antibody. The GLP-1 agonist employed was Semaglutide. Semaglutide was administered at 10 μg/kg. Anti-Myostatin antibody was administered at 50 mg/kg. Anti-Activin A antibody was administered at 50 mg/kg.\nPostmenopausal women received 10 mg/kg (anti-myostatin+anti-activin A) IV, Q2W. Thigh muscle volume was measured via MRI, and android fat mass was measured via iDXA, both over 30 weeks. Obese non-human primates received 50 mg/kg anti-myostatin+50 mg/kg anti-activin A (QW). Total lean mass was measured via iDXA, and total fat mass was measured via iDXA, both over 28 weeks. […]"}}, "data": [{"substance": "Semaglutide", "values": [{"measurement": "Final organ weights, Gonadal Fat, Mean", "setting": "[1]", "value": "−10.56"}, {"measurement": "Final organ weights, Subq Fat, Mean", "setting": "[1]", "value": "−22.58"}, {"measurement": "Body weight changes over time, Mean", "setting": "[2]; Day 5", "value": "−11.33"}, {"measurement": "Body weight changes over time, Mean", "setting": "[2]; Day 6", "value": "−12.46"}, {"measurement": "Body weight changes over time, Mean", "setting": "[2]; Day 9", "value": "−15.25"}, {"measurement": "Body weight changes over time, Mean", "setting": "[2]; Day 12", "value": "−16.20"}, {"measurement": "Body weight changes over time, Mean", "setting": "[2]; Day 13", "value": "−15.72"}, {"measurement": "Body weight changes over time, Mean", "setting": "[2]; Day 14", "value": "−17.49"}, {"measurement": "Body weight changes over time, Mean", "setting": "[2]; Day 19", "value": "−15.74"}, {"measurement": "Body weight changes over time, Mean", "setting": "[2]; Day 23", "value": "−13.16"}, {"measurement": "Body weight changes over time, Mean", "setting": "[2]; Day 26", "value": "−12.53"}, {"measurement": "Body weight changes over time, Mean", "setting": "[2]; Day −6 (before treatment)", "value": 0}, {"measurement": "Fat mass changes over time, Mean", "setting": "[2]; Day 5", "value": "−23.75"}, {"measurement": "Lean mass changes over time, Mean", "setting": "[2]; Day 5", "value": "−3.50"}, {"measurement": "Fat mass changes over time, Mean", "setting": "[2]; Day 12", "value": "−33.78"}, {"measurement": "Lean mass changes over time, Mean", "setting": "[2]; Day 12", "value": "−4.09"}, {"measurement": "Fat mass changes over time, Mean", "setting": "[2]; Day 19", "value": "−34.24"}, {"measurement": "Lean mass changes over time, Mean", "setting": "[2]; Day 19", "value": "−2.43"}, {"measurement": "Lean mass changes over time, Mean", "setting": "[2]; Day 25", "value": "−1.93"}, {"measurement": "Fat mass changes over time, Mean", "setting": "[2]; Day 26", "value": "−29.52"}, {"measurement": "Fat mass changes over time, Mean", "setting": "[2]; Day −6 (before treatment)", "value": 0}, {"measurement": "Lean mass changes over time, Mean", "setting": "[2]; Day −6 (before treatment)", "value": 0}, {"measurement": "decrease in body weight as compared with the control group", "setting": "[2]; vs control group", "value": "approximately 14%"}, {"measurement": "decrease in lean mass as compared with the control group", "setting": "[2]; vs control group", "value": "3-4%"}, {"measurement": "loss in fat mass compared to the control group", "setting": "[2]; vs control group (Group 1)", "value": "approximately 18%"}, {"measurement": "Plasma measurements - Liver panel, AST", "setting": "[3]", "value": 103.625}, {"measurement": "Plasma measurements - Liver panel, Chol", "setting": "[3]", "value": 193.75}, {"measurement": "Plasma measurements - Liver panel, NEFA", "setting": "[3]", "value": 0.5837}, {"measurement": "Liver fat area, Mean", "setting": "[4]; H&E liver histology", "value": 28.34}, {"measurement": "SMA positive area (% of fat-free area), Mean", "setting": "[4]; liver SMA staining", "value": "6.942 % of fat-free area"}, {"measurement": "SMA positive area (normalized to nuclei amount), Mean", "setting": "[4]; liver SMA staining", "value": 14.32}, {"measurement": "Liver triglycerides, Mean", "setting": "[4]; liver tissue", "value": 153.6}, {"measurement": "fed insulin over time, Mean", "setting": "[5]; Day 6", "value": 6.2175}, {"measurement": "fed insulin over time, Mean", "setting": "[5]; Day 13", "value": 2.296}, {"measurement": "Fed glucose over time, Mean", "setting": "[5]; Day 20, in mg/dL (unit assumed)", "value": 259.5}, {"measurement": "fed insulin over time, Mean", "setting": "[5]; Day −5 (before treatment)", "value": 16.285}, {"measurement": "Fed glucagon levels at day 20, Mean", "setting": "[5]; day 20", "value": 4.106}, {"measurement": "Area under the curve of OGTT at day 23, Mean", "setting": "[6]; 2 g/kg glucose oral gavage, day 23", "value": 27698}, {"measurement": "4 hrs fasted glucose levels at day 23, Mean", "setting": "[6]; 4 hrs fasted, day 23, in mg/dL (unit assumed)", "value": 192.1}, {"measurement": "6 hrs fasted glucose levels at day 26, Mean", "setting": "[6]; 6 hrs fasted, day 26, in mg/dL (unit assumed)", "value": 172.6}, {"measurement": "oGTT measurement on day 23 (glucose), Mean", "setting": "[6]; Time 0 min", "value": 192.125}, {"measurement": "oGTT measurement on day 23 (glucose), Mean", "setting": "[6]; Time 15 min", "value": 433.5}, {"measurement": "oGTT measurement on day 23 (glucose), Mean", "setting": "[6]; Time 30 min", "value": 310.75}, {"measurement": "oGTT measurement on day 23 (glucose), Mean", "setting": "[6]; Time 60 min", "value": 230.75}, {"measurement": "lean mass (in words)", "setting": "[7]", "value": "lean mass loss"}]}]}
